Results as given in PMC5620609 (Pharmaceuticals, 2017).
Where two headings read alike, the source gives them in different places.

What was measured:
HCT-15 = experiment: NCI 60 cell line panel: HCT-15; type: cell-based, human; settings: Colon cancer, TP53 null/mutant
From the text: (§1) Details of the NCI 60 One Dose Screen are well known and available online.

SK-MEL-5 = experiment: NCI 60 cell line panel: SK-MEL-5; type: cell-based, human; settings: Melanoma, TP53 wild type
From the text: as §1

NCI-H522 = experiment: NCI 60 cell line panel: NCI-H522; type: cell-based, human; settings: NSCL, TP53 null/mutant
From the text: as §1

[1] = system: human colon cancer cell line HCT-116; experiment: In vitro growth inhibition (CellTiter-Glo), HCT-116; type: cell-based; settings: HCT 116 TP53(-/-), read-out: GI50 (concentration of drug that inhibited 50% of cell growth), 72 h exposure
Experimental: (§2) Cells were grown in an appropriate medium for the cell line of interest; 96 well plates of each cell line were seeded with 5000 cells per well and left overnight. Drug exposed cells were incubated at 37 °C for 72 h. At the end of the 72 h exposure period, plates were removed for the CellTiter-Glo® assay. Luminescence was recorded on a Synergy 4.0. Assays were performed in triplicate.

SF-295 = experiment: NCI 60 cell line panel: SF-295; type: cell-based, human; settings: CNS cancer, TP53 null/mutant
From the text: as §1

OVCAR-5 = experiment: NCI 60 cell line panel: OVCAR-5; type: cell-based, human; settings: Ovarian cancer, TP53 wild type
From the text: as §1

THP-1 cells = experiment: Morphology (Giemsa stain) of THP-1 cells; type: cell-based, human; settings: 6 days following exposure
PC-3 = experiment: NCI 60 cell line panel: PC-3; type: cell-based, human; settings: Prostate cancer, TP53 null/mutant
From the text: as §1

CCRF-CEM = experiment: NCI 60 cell line panel: CCRF-CEM; type: cell-based, human; settings: Leukemia, TP53 null/mutant
From the text: as §1

[2] = Hydrolysis of the 5-azacytosine base; type: physicochemical; settings: data not shown
NCI-H23 = experiment: NCI 60 cell line panel: NCI-H23; type: cell-based, human; settings: NSCL, TP53 null/mutant
From the text: as §1

K-562 = experiment: NCI 60 cell line panel: K-562; type: cell-based, human; settings: Leukemia, TP53 null/mutant
From the text: as §1

UACC-62 = experiment: NCI 60 cell line panel: UACC-62; type: cell-based, human; settings: Melanoma, TP53 wild type
From the text: as §1

EKVX = experiment: NCI 60 cell line panel: EKVX; type: cell-based, human; settings: NSCL, TP53 null/mutant
From the text: as §1

[3] = Pharmacokinetic study, IV in mice; type: in vivo; settings: 10 mg/kg; for half-life: iv
Experimental: Blood aliquots (300–400 µL) were collected via cardiac puncture from anesthetized mice in anticoagulant coated tubes, then kept on ice and centrifuged at 2500× g for 15 min at 4 °C. The plasma was harvested and kept frozen at −80 °C. Plasma samples were processed using acetonitrile precipitation and analyzed by HPLC-MS/MS. A plasma calibration curve was generated and a reportable linear range determined, along with the lower limit of quantitation.

BT-549 = experiment: NCI 60 cell line panel: BT-549; type: cell-based, human; settings: Breast cancer, TP53 null/mutant
From the text: as §1

CAKI-1 = experiment: NCI 60 cell line panel: CAKI-1; type: cell-based, human; settings: Renal cancer, TP53 wild type
From the text: as §1

SNB-19 = experiment: NCI 60 cell line panel: SNB-19; type: cell-based, human; settings: CNS cancer, TP53 null/mutant
From the text: as §1

ACHN = experiment: NCI 60 cell line panel: ACHN; type: cell-based, human; settings: Renal cancer, TP53 wild type
From the text: as §1

KM12 = experiment: NCI 60 cell line panel: KM12; type: cell-based, human; settings: Colon cancer, TP53 null/mutant
From the text: as §1

NCI-H322M = experiment: NCI 60 cell line panel: NCI-H322M; type: cell-based, human; settings: NSCL, TP53 null/mutant
From the text: as §1

DNMT1 = DNMT1 (Homo sapiens, UniProt P26358); experiment: Western blot for DNMT1, Kasumi-1 cells; type: cell-based; design: cytoplasmic and nuclear protein extracts from cells; endogenous in cells; host or cells: Kasumi-1; settings: 0.1 and 0.2 µM, 6 days after exposure
Experimental: Cells were co-stained with Annexin-V and PI on day 2 and analyzed by flow cytometry.
Approximately 100 µg of cytoplasmic and nuclear protein extracts from cells, together with molecular weight markers, were subjected to SDS-PAGE on 4–12% gradient gels (Invitrogen, Carlsbad, CA, USA) followed by transfer to polyvinylidene fluoride membranes (Invitrogen). Blots were probed using antibodies for DNMT1 (Abcam ab16632).

NCI/ADR-RES = experiment: NCI 60 cell line panel: NCI/ADR-RES; type: cell-based, human; settings: Ovarian cancer, TP53 null/mutant
From the text: as §1

HCC-2998 = experiment: NCI 60 cell line panel: HCC-2998; type: cell-based, human; settings: Colon cancer, TP53 null/mutant
From the text: as §1

MCF7 = experiment: NCI 60 cell line panel: MCF7; type: cell-based, human; settings: Breast cancer, TP53 wild type
From the text: as §1

SN12C = experiment: NCI 60 cell line panel: SN12C; type: cell-based, human; settings: Renal cancer, TP53 null/mutant
From the text: as §1

A549/ATCC = experiment: NCI 60 cell line panel: A549/ATCC; type: cell-based, human; settings: NSCL, TP53 wild type
From the text: as §1

SNB-75 = experiment: NCI 60 cell line panel: SNB-75; type: cell-based, human; settings: CNS cancer, TP53 null/mutant
From the text: as §1

NCI-H226 = experiment: NCI 60 cell line panel: NCI-H226; type: cell-based, human; settings: NSCL, TP53 null/mutant
From the text: as §1

[4] = system: TP53 WT colon cancer cell line Ls174T; experiment: In vitro growth inhibition (CellTiter-Glo), Ls174T; type: cell-based; settings: Homo sapiens, 72 h exposure
Experimental: Further testing was performed in colon cancer cell lines.
as §2

A498 = experiment: NCI 60 cell line panel: A498; type: cell-based, human; settings: Renal cancer, TP53 wild type
From the text: as §1

HT29 = experiment: NCI 60 cell line panel: HT29; type: cell-based, human; settings: Colon cancer, TP53 null/mutant
From the text: as §1

MDA-MB-435 = experiment: NCI 60 cell line panel: MDA-MB-435; type: cell-based, human; settings: Melanoma, TP53 null/mutant
From the text: as §1

HCT-116 = experiment: NCI 60 cell line panel: HCT-116; type: cell-based, human; settings: Colon cancer, TP53 wild type
From the text: as §1

total DNMT = experiment: Total DNMT inhibition, colorimetric assay in HCT-116 cells; type: cell-based, human; settings: 10 µM, 24 h
Experimental: Total DNMT activity was measured in the colon cancer cell line HCT-116. The assay was performed using the EpiQuick^TM DNA Methyltransferase Activity/Inhibition Assay Kit (Epigentek, Brooklyn, NY, USA). […] Assays were performed three times in triplicate.

SF-268 = experiment: NCI 60 cell line panel: SF-268; type: cell-based, human; settings: CNS cancer, TP53 null/mutant
From the text: as §1

Chain of DNMT1 (P26358 whole entry): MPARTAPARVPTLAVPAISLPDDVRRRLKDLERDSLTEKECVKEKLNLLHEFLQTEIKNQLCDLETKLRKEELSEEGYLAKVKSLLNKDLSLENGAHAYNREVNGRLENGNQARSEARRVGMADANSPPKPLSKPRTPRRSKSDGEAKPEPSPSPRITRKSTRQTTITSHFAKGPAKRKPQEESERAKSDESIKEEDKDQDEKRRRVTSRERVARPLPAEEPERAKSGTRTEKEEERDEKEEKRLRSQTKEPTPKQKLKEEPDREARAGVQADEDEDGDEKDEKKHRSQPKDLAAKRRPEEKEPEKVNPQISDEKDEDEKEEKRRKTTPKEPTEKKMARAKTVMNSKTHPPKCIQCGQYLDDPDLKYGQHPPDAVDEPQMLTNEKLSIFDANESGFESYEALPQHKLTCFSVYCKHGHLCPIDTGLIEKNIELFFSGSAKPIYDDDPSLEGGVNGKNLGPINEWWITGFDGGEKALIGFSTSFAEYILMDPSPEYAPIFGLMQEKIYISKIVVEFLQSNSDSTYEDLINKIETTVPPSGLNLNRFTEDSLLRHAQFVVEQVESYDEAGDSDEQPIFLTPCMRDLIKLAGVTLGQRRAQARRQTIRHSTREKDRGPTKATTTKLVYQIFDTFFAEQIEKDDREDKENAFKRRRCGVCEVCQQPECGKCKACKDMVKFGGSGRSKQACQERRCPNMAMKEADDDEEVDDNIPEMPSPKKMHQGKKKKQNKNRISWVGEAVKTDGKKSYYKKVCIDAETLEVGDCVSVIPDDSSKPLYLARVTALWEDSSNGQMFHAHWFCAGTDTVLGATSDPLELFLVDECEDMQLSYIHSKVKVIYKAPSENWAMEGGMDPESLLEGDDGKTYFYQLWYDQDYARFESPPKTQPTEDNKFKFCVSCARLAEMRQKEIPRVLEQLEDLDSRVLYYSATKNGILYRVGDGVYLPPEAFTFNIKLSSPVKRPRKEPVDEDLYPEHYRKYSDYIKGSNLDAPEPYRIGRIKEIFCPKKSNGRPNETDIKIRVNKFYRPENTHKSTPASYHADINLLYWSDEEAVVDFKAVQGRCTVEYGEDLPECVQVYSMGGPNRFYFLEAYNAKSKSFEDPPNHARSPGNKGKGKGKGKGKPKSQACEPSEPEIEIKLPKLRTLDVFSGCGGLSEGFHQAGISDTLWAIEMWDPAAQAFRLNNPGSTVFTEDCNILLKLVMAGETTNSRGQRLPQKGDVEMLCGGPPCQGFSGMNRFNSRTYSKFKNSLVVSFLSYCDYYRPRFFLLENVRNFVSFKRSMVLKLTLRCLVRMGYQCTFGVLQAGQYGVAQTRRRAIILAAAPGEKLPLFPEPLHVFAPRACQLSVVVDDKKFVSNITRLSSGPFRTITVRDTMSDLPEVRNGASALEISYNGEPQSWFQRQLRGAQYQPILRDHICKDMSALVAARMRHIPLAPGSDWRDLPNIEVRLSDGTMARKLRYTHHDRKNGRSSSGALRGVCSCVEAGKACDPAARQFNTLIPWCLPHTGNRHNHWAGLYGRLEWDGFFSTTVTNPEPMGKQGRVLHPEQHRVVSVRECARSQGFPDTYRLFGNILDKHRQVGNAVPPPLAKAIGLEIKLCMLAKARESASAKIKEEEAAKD

Nc1ncn([C@@H]2O[C@H](CO)[C@@H](O)C2(F)F)c(=O)n1 [NUC013, 5-aza-2′,2′-difluroro deoxycytidine]
Growth (%) at 10 µM (HCT-15): 52.19% | Growth (%) at 10 µM (SK-MEL-5): 70.84% | Growth (%) at 10 µM (NCI-H522): 86.91% | GI50 [1]: 4540 nM | Growth (%) at 10 µM (SF-295): 77.93% | Growth (%) at 10 µM (OVCAR-5): 86.95% | morphologic changes (THP-1 cells): morphologic changes suggestive of cell differentiation | Growth (%) at 10 µM (PC-3): 63.57% | Growth (%) at 10 µM (CCRF-CEM): 23.67% | hydrolysis at the 6-position of the cytosine ring [2]: susceptible to hydrolysis | Growth (%) at 10 µM (NCI-H23): 30.61% | Growth (%) at 10 µM (K-562): 65.66% | Growth (%) at 10 µM (UACC-62): 47.29% | Growth (%) at 10 µM (EKVX): 86.06% | identification in plasma at the 6 and 24 h timepoints ([3]; mice, IV): could not be identified | half-life ([3]; mouse, plasma, mice, intravenous injection, read-out: half-life): 20.1 min | half-life ([3]; mouse, plasma, mouse, IV, plasma, non-compartmental, read-out: t1/2 (converted)): 20.1 min | AUC Extr ([3]; mouse, IV, plasma): 0.04% | AUC(0-inf) ([3]; mouse, IV, plasma): 11100 ng·h/mL | AUC(0-t) ([3]; mouse, IV, plasma): 11100 ng·h/mL | C0 ([3]; mouse, IV, plasma): 36900 ng/mL | Last time point for AUClast ([3]; mouse, IV, plasma): 4 h | MRT ([3]; mouse, IV, plasma): 17.5 min | Vd ([3]; mouse, IV, plasma, read-out: Vss): 0.26 L/kg | Growth (%) at 10 µM (BT-549): 53.63% | Growth (%) at 10 µM (CAKI-1): 27.86% | Growth (%) at 10 µM (SNB-19): 58.88% | Growth (%) at 10 µM (ACHN): 7.28% | Growth (%) at 10 µM (KM12): 61.18% | Growth (%) at 10 µM (NCI-H322M): 70.00% | DNMT1 inhibition by western blot (DNMT1): weaker than decitabine | Growth (%) at 10 µM (NCI/ADR-RES): 42.13% | Growth (%) at 10 µM (HCC-2998): 60.44% | Growth (%) at 10 µM (MCF7): 20.74% | Growth (%) at 10 µM (SN12C): 51.65% | Growth (%) at 10 µM (A549/ATCC): 37.91% | Growth (%) at 10 µM (SNB-75): 64.95% | Growth (%) at 10 µM (NCI-H226): 52.34% | GI50 [4]: 1300 nM | Growth (%) at 10 µM (A498): 38.04% | Growth (%) at 10 µM (HT29): 70.09% | Growth (%) at 10 µM (MDA-MB-435): 53.04% | Growth (%) at 10 µM (HCT-116): 29.84% | inhibition of total DNMT (total DNMT): 48.5% | Growth (%) at 10 µM (SF-268): 65.39%
